Data on 10 compounds can be found in patent US9242937B2, “Pharmaceutically active disubstituted pyridine derivatives” (Bayer Intellectual Property GmbH, priority 2011, dated 2016).

Molecules are shown by their SMILES. pIC50, pKd: −log10 of the molar value.

By pIC50 is commonly meant the IC50 on a negative log10 scale, so that one unit is a factor of ten.

In one experiment the test system is MDAMB468 cells. The experiment in a line: Cell viability assay, MDAMB468 cells. As to conditions: Homo sapiens, MDA-MB-468; 72 h, Cell Titer Glo; read-out: Cell Viability - MDAMB468 cells (activity range), IC50. Type of experiment: cell-based. Here is the method:
(§1) Hela- or MDAMB468-Cells were maintained in RPMI 1640 or McCoy's 5A cell culture medium+glutamine (PAN Biotech GmbH, Aidenbach, Germany; order no. P04-22100; P04-05500) supplemented with 10% fetal calf serum “Gold” (PAA Laboratories GmbH, Pasching, Austria; order no. A15-151) and grown at 37° C., 5% CO2. For the cell viability assay, cells were seeded with a density of 400 (Hela cells, DSMZ Braunschweig order no. ACC57) or 800 (MDAMB468 cells, ATCC order no. HTB-132) per well in 25 μL in 384-well plates (Greiner Bio-One, Frickenhausen, Germany; order no. 781080). After overnight incubation at 37° C./5% CO2, 25 nL or 75 nL compound were added to each sample well by using BIOMEK FXP Laboratory Automation Workstation (Beckman Coulter, USA). Wells with cells and 0.1% or 0.3% DMSO in culture medium were used as positive controls, wells with cells and 10 μM staurosporine in culture medium were used as negative controls. The cells were incubated with the compounds for 72 h at 37° C./5% CO2. For measurement of cell viability 25 μL Cell Titer Glo reagent (Promega, Madison, USA; order no. G7573), 1:2 diluted with cell culture medium, was added to each well. The 384 well-plates were placed for 2 min on a orbital microplate shaker and incubated for further 10 min at room temperature to stabilize the luminescence signal. Luminescence was measured by Envision Plate Reader (Perkin Elmer, USA). IC50 values were calculated with the software Excel Fit (IDBS, Guildford, UK) from 3-fold dilution series comprising at least 8 concentrations in duplicates.
On the technique in general: ATP-based viability assays read luminescence as a measure of living cells.

In experiment [1] the test system is LPS-induced TNF alpha release in PBMCs. Kind of experiment: TNF alpha release assay (LPS-stimulated PBMCs). Type of experiment: cell-based. As to conditions: Homo sapiens, PBMC, 1 μg/mL LPS, 6 h, read-out: TNF alpha release (activity range), IC50. The method, then: Freshly isolated peripheral blood mononuclear cells (PBMCs) were seeded in 96-well cell culture plates with 200,000 cells in 100 μl cell culture medium (DMEM cell culture medium+glutamine from PAN Biotech GmbH, Aidenbach, Germany) supplemented with 10% fetal calf serum (PAA Laboratories GmbH, Pasching, Austria) per well and incubated overnight at 37° C., 5% CO2. To each well, 100 μL cell culture medium with 2× concentrated test compounds diluted from 10 mM DMSO stocks, or 100 μL DMEM with 0.4% DMSO for control wells, was added. The compounds of general formula (I) summarized in Table 6 were used in this assay. After incubation for 1 h at 37° C., 5% CO2, cells were stimulated with 1 μg/mL LPS (Lipopolysaccharides, Sigma, catalog #L4391-1 MG; 1 mg/ml stock solution), or left untreated for negative controls, and plates were incubated for 6 h at 37° C./5% CO2. The cell culture plates were centrifuged at 2000 rpm for 5 minutes, and supernatants were transferred to fresh 96-well polypropylene plates. 25 μL of supernatants were transferred into 96-well-plates of the human TNF alpha-tissue culture kit (Meso Scale Discovery, Gaithersburg, Md., USA), and manufacturer's instructions were followed for analysis of TNF alpha levels. Chemoluminescence was measured in the Mesoscale Sector Imager, and IC50 values were calculated with the software Excel Fit (IDBS, Guildford, UK) from 2-fold dilution series comprising at least 6 concentrations in duplicates.

In the next experiment the target is T1, CDK9/Cyclin K (Homo sapiens, UniProt P50750).
T1 construct: purchased Invitrogen
The experiment in a line: LanthaScreen Eu Kinase Binding Assay, CDK9/Cyclin K. As to conditions: tracer 236, read-out: CDK9/Cyclin K (activity range), Kd. The method, then: This protocol describes how the LanthaScreen Eu Kinase Binding Assay was performed to determine dissociation constants (Kd) of compounds of general formula (I) and CDK/Cyclin complexes. The principle behind this assay is based upon the binding and displacement of an Alexa Fluor 647-labeled tracer, which binds to the active site of kinases. Binding of the tracer to the kinase is detected using a Eu-labeled antibody. Simultaneous binding of both the tracer and antibody to the kinase gives rise to a FRET-signal. Binding of an inhibitor to the kinase competes for binding with the tracer, resulting in a loss of FRET.
The compounds of general formula (I) summarized in Table 1 were diluted from a 10 mM DMSO stock solution 1:10 in a total volume of 15 μL DMSO. This compound predilution was then serial diluted 1:3 over 8 steps in DMSO and briefly spun down. Each compound solution was now diluted 1:33.33 in kinase buffer (HEPES: 20 mM, pH: 8.0; MgCl2: 10 mM; DTT: 1 mM; Brij-35: 0.01%), mixed thoroughly and spun down. For every sample, 5 μL of the diluted compound were mixed with 5 μL tracer working solution (e.g. 60 nM tracer 236 in kinase buffer for CDK2/Cyclin A) and 5 μL CDK/Cyclin/Anti-GST-AB-working solution (e.g. 15 nM CDK2/Cyclin A, 1:250 dilution of Anti-GST-AB in kinase buffer) in a well of a small volume 384 well plate (Corning Incorporated, Corning, N.Y., USA; order no. 3673). The tracer concentration was adjusted to its dissociation constant (Kd) for the CDK/Cyclin, which was 30 nM for CDK2/Cyclin A, CDK7/Cyclin H and CDK9/Cyclin T1, 20 nM for CDK8/Cyclin C, and 35 nM for CDK9/Cyclin K. For negative controls, in each well 5 μL of DMSO working solution (3% DMSO diluted in kinase buffer) was mixed with 5 μL Anti-GST-AB working solution (e.g. 1:250 dilution of Anti-GST-AB in kinase buffer for CDK2/Cyclin A) and 5 μL Tracer working solution (e.g. 60 nM Tracer 236 in kinase buffer for CDK2/Cyclin A). For positive controls, in each well 5 μL of DMSO working solution (3% DMSO diluted in kinase buffer) was mixed with 5 μL CDK/Cyclin/Anti-GST-AB-working solution: (e.g. 15 nM CDK2/Cyclin A, 1:250 dilution of Anti-GST-AB in kinase buffer) and 5 μL Tracer working solution (e.g. 60 nM Tracer 236 in kinase buffer for CDK2/Cyclin A). Positive and negative controls were calculated from at least 8 different sample wells. The 384 well plates were mixed in a Teleshaker plate mixer (Beckman Coulter, Brea, Calif., USA) at 2000 rpm for 40 sec, and incubated for 1 h at room temperature before reading. The FRET signal was measured at 340 nm excitation, 665 nm and 615 nm emission (for the kinase tracer and LanthaScreen Eu-AB, respectively) with an Envision spectrophotometer (Perkin Elmer, Waltham, Mass., USA) with 50 μs delay and 300 μs integration time. Kd values were determined from the sigmoidal dose response curves with the software Quattro Workflow (Quattro GmbH, Munich, Germany).
A general note: In TR-FRET formats the signal depends on donor and acceptor labels being close together.

For a further experiment, the system named is Hela cells. The experiment in a line: Cell viability assay, Hela cells. As to conditions: Homo sapiens, 72 h, Cell Titer Glo, read-out: Cell Viability - Hela cells (activity range), IC50. The experiment is classed as cell-based. Here is the method: as §1

T1 sequence (P50750 whole entry): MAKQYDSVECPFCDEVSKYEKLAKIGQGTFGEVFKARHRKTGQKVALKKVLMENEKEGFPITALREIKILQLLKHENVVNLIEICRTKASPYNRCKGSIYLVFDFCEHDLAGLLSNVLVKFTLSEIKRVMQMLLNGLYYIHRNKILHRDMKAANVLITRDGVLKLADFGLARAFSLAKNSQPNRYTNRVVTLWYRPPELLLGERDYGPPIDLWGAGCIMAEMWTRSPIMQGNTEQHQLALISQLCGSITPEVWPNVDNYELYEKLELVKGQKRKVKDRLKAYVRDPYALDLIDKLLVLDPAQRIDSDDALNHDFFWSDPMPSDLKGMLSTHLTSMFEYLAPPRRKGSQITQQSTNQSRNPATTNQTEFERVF
T1 sequence (O75909 1-357 isoform O75909-1 partner): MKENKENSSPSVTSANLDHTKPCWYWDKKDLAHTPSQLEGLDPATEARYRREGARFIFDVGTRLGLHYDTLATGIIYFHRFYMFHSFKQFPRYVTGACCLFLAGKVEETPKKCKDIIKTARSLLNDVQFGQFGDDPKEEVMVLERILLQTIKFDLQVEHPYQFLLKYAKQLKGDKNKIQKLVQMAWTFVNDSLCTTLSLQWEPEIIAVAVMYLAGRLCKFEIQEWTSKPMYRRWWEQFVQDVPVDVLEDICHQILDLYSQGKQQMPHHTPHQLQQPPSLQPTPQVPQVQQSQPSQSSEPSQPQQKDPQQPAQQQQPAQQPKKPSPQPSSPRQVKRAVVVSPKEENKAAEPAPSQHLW

Consider `COc1ccccc1-c1ccnc(Nc2ccccc2)c1` [Compound B1, 4-(2-Methoxyphenyl)-N-phenylpyridin-2-amine], for which the negative logarithm of the IC50 (pIC50) (with MDAMB468 cells; in experiment [1]) was less than 5.00 each time.

`COc1ccccc1-c1ccnc(Nc2cccc([N+](=O)[O-])c2)c1` [Compound C1, 4-(2-Methoxyphenyl)-N-(3-nitrophenyl)pyridin-2-amine]: the pIC50 with MDAMB468 cells was less than 5.00; in experiment [1] it was 5.00 to 6.00. The pKd on CDK9/Cyclin K was 6.00 to 7.00.

In the case of `COc1ccccc1-c1ccnc(Nc2cccc(S(N)(=O)=O)c2)c1` [Compound D1, 3-[(4-(2-Methoxyphenyl)pyridin-2-yl)amino]benzenesulfonamide], the pIC50 (with MDAMB468 cells; in the experiment with Hela cells; in experiment [1]) was 6.00 to 7.00 each time. The pKd at CDK9/Cyclin K is more than 7.00.

Consider `COc1ccccc1-c1ccnc(Nc2ccc(S(N)(=O)=O)cc2)c1` [Compound E1, 4-[(4-(2-Methoxyphenyl)pyridin-2-yl)amino]benzenesulfonamide], for which the pIC50 in the experiment on MDAMB468 cells was 5.00 to 6.00; in the experiment with Hela cells, less than 5.00; in experiment [1], 5.00 to 6.00. The pKd at CDK9/Cyclin K was more than 7.00.

In the case of `COc1ccccc1-c1ccnc(Nc2cccc(S(C)(=O)=O)c2)c1` [Compound F1, 4-(2-Methoxyphenyl)-N-(3-(methylsulfonyl)phenyl)pyridin-2-amine], the pIC50 (in the experiment on MDAMB468 cells; with Hela cells; in experiment [1]) was 5.00 to 6.00 throughout. Besides, at CDK9/Cyclin K, the pKd was more than 7.00.

`COc1cc(F)ccc1-c1ccnc(Nc2cccc(CS(N)(=O)=O)c2)c1` [Compound G1, [3-((4-(4-Fluoro-2-methoxyphenyl)pyridin-2-yl)amino)phenyl]-methanesulfonamide]: the pIC50 in the experiment on MDAMB468 cells is 5.00 to 6.00; in the experiment on Hela cells, 5.00 to 6.00; in experiment [1] it was 6.00 to 7.00. Further, at CDK9/Cyclin K, the pKd was more than 7.00.

In the case of `COc1cc(F)ccc1-c1ccnc(Nc2cccc(CS(=O)(=O)N(C)C)c2)c1` [Compound G3, 1-[3-((4-(4-Fluoro-2-methoxyphenyl)pyridin-2-yl)amino)phenyl]-N,N-dimethylmethanesulfonamide], the results for the negative logarithm of the IC50 (pIC50) with MDAMB468 cells and with Hela cells were 5.00 to 6.00 and less than 5.00, respectively.

For the compound `COc1cc(F)ccc1-c1ccnc(Nc2cccc(NS(C)(=O)=O)c2)c1` [Compound J1, N-[3-((4-(4-Fluoro-2-methoxyphenyl)pyridin-2-yl)amino)phenyl]-methanesulfonamide], the pIC50 with MDAMB468 cells and with Hela cells was 5.00 to 6.00 throughout.

Consider `COc1cc(F)ccc1-c1ccnc(Nc2cccc(NC(C)=O)c2)c1` [Compound J2, N-[3-((4-(4-Fluoro-2-methoxyphenyl)pyridin-2-yl)amino)phenyl]-acetamide], for which the values for the pIC50 in the experiment with MDAMB468 cells and in the experiment with Hela cells were 5.00 to 6.00 and less than 5.00, respectively.

With `CCCNS(=O)(=O)Cc1cccc(Nc2cc(-c3ccc(F)cc3OC)ccn2)c1` [Compound K1, 1-[3-((4-(4-Fluoro-2-methoxyphenyl)pyridin-2-yl)amino)phenyl]-N-propylmethanesulfonamide], the pIC50 with MDAMB468 cells and in the experiment on Hela cells was less than 5.00 throughout.
